Assay results as given in PMC10063609, “Discovery of novel cardiac troponin activators using fluorescence polarization-based high throughput screening assays” (Scientific Reports, 2023).
Counter-ions that a name gives are not always drawn.

target: interaction between cTnC and switch peptide of cTnI (cTnISP) (Homo sapiens, UniProt P63316); test: Fluorescence polarization HTS and dose-response, cTnC/FAM-cTnISP; assay type: binding; conditions: not given

FP (mP)	Compound
85.7	(S)-(+)-Niguldipine hydrochloride

same assay, conditions: cTnISP primary screen, ENZO Screenwell library, single concentration 50 μmol/L

FP (mP)	Compound
119.8	N[C@@H](Cc1cc(I)c(Oc2cc(I)c(O)c(I)c2)c(I)c1)C(=O)[O-].[Na+] [Levothyroxine·Na]
60.7	CN(C)CCOc1ccc(/C(=C(/CCCl)c2ccccc2)c2ccccc2)cc1 [Toremifene Base]
74.3	CSc1ccc2c(c1)N(CCC1CCCCN1C)c1ccccc1S2 (stereo not shown) [Thioridazine.HCl]
73.2	OCCN1CCN(CCCN2c3ccccc3Sc3ccc(Cl)cc32)CC1 [Perphenazine]

same assay, conditions: cTnISP primary screen, LOPAC 1280 library, single concentration 50 μmol/L

FP (mP)	Compound
86.4	CCC(=O)Nc1cccc(Oc2nc(Nc3ccc(N4CCN(C)CC4)cc3OC)ncc2Cl)c1 [WZ4003]
88.8	BMS-189453
78.4	[H]/N=C(/NCCCCC)N/N=C/c1c[nH]c2ccc(OC)cc12 [Tegaserod maleate]
87	Cc1nc(Nc2cnn(C3CCNCC3)c2)nc2c1N(C)C(=O)c1cc3ccccc3cc1N2C [HTH 01-015]
88.7	CC(C)[C@H]1c2ccc(F)cc2CC[C@@]1(CCN(C)CCCc1nc2ccccc2[nH]1)OC(=O)C1CC1 [NNC 55-0396]
83.7	c1ccc2cc(-c3ncc[nH]3)ccc2c1 [Benazoline oxalate]
84.5	CN1CCN(CCCN2c3ccccc3Sc3ccc(C(F)(F)F)cc32)CC1 [Trifluoperazine dihydrochloride]
109.8	CCCCCCCCCCCCCCCC(=O)OC(CC(=O)O)C[N+](C)(C)C.[Cl-] (racemic) [Palmitoyl-DL-Carnitine chloride]
89.4	CSc1ccc2c(c1)N(CCC1CCCCN1C)c1ccccc1S2 (stereo not shown) [Thioridazine.HCl]
86.8	O=C(O)C(O)C(O)C(=O)O.Oc1ccc2c(c1)CC[C@H](c1ccccc1)[C@@H]2c1ccc(OCCN2CCCC2)cc1 [Lasofoxifene tartrate]
84.3	O=C(c1ccc(Nc2nccc(-c3cc4ccccc4s3)n2)cc1)N1CCC(N2CCCC2)CC1 [IKK-16 dihydrochloride]

Compound	FP (mP)
Cc1c2ccncc2c(C)c2c1[nH]c1ccccc12 [Ellipticine]	86.1
CCN(CC)CCOc1ccc(/C(=C(/Cl)c2ccccc2)c2ccccc2)cc1.Cl [Enclomiphene hydrochloride]	78.4

same assay, conditions: cTnISP primary screen, TOCRIScreen library, single concentration 50 μmol/L

FP (mP)	Compound
81.2	COc1cc(N2CCN(C)CC2)ccc1Nc1ncc2c(n1)N(C)c1ccccc1C(=O)N2 [XMD 8-87]
78.7	CCN(CC)CCOc1ccc(Nc2ncc3cc(-c4c(Cl)cccc4Cl)c(=O)n(C)c3n2)cc1.Cl.Cl [PD 166285 dihydrochloride]
57.9	CS(=O)(=O)O.Cn1cc(C2=C(c3cn(CCCSC(=N)N)c4ccccc34)C(=O)NC2=O)c2ccccc21 [Ro 31-8220 mesylate]
87.1	Cc1nc(Nc2cnn(C3CCNCC3)c2)nc2c1N(C)C(=O)c1cc3ccccc3cc1N2C [HTH 01-015]
88	COc1cc(C(=O)NC2CCN(C)CC2)c(F)cc1Nc1ncc2c(n1)N(C1CCCC1)CC(F)(F)C(=O)N2C.Cl [TAK 960 hydrochloride]
82	O=C(c1ccc(Nc2nccc(-c3cc4ccccc4s3)n2)cc1)N1CCC(N2CCCC2)CC1 [IKK 16]
84.3	CCc1ccc(OCc2ccccc2C(=O)Nc2ccc3nc(C)cc(N)c3c2)cc1 [JTC 801]
73.2	CC(C)c1cnn2c(NCc3ccccc3)cc(NCCCCCCN)nc12.Cl.Cl [BS 181 dihydrochloride]
86	O=C1CCc2ccc(OCCCCN3CCN(c4cccc(Cl)c4Cl)CC3)cc2N1 [Aripiprazole]
64.1	CCCCCCCCNC(=O)/C(C#N)=C/c1cn(CCCN(C)C)c2ccccc12 [Dynole 34-2]

Compound	FP (mP)
Cc1[nH]c(/C=C2\C(=O)Nc3ccc(S(=O)(=O)N(C)c4cccc(Cl)c4)cc32)c(C)c1C(=O)N1CCN(C)CC1 [SU 11274]	64.5
CCCC[C@@H](C=O)NC(=O)[C@H](CC(C)C)NC(=O)OCc1ccccc1 [Calpeptin]	121.8
CN(C(=O)CN1C(=O)COc2cc(Cl)c(Cl)cc21)[C@@H](CN1CCCC1)c1ccc(-c2cccc(C(N)=O)c2)cc1.Cl [GSK 1562590 hydrochloride]	89.9
